Assay results: patent US7985536B2, “Method for regulating NO production in an isolated organ or tissue during warm perfusion” (priority 1999, dated 2011)
“And” between values parts separate entries of the source, which are not always exact repeats. Equal entries are not always repeated.

Experiments:
[1] = test system: canine kidneys; assay: CoPP in the perfusate during EMS perfusion: kidney metabolism and function
Protocol: (§1) Test group (n=3) canine kidneys were excised, cannulated, flushed of blood with EMS perfusion solution and placed on EMS perfusion at 32° C.-34° C. for 6 hours with either 5, 25 or 50 uM cobalt protoporphyrin (CoPP) added to the perfusate. Metabolic and functional evaluations consisted of quantification of the ex vivo kidney function during the period of HO-1 induction. Using the EMS technology, kidneys were maintained in a metabolically active state by perfusion at near physiologic temperature. Kidneys weighing approximately 70-90 gm were procured following brain death with concomitant warm ischemia of no more than 15 minutes. The kidneys were then transitioned to EMS perfusion at 32° C. to 34° C. The kidneys were evaluated for oxidative metabolism, vascular dynamics and organ function. The organ parameters were allowed to stabilize for one hour prior to the evaluation of function. Samples from the arterial and venous lines were collected, along with the urine produced during the perfusions. PO2 measurements for the arterial and venous samples were made with a Radiometer ABL5.
Oxygen consumption was calculated as: ml/min/gm=(PO2 artery−PO2 venous)×(flow rate).
The vascular resistance was calculated as: vasc resis=mean arterial pressure/mean flow rate
Creatinine was added to the perfusate as a tracer. The urine made during the EMS perfusions at 32° C. to 34° C. was collected and tested. The concentration of creatinine was measured on an IDEXX Vet Lab chemistry analyzer and the glomerular filtration rate (GFR) was calculated as: […]

[2] = test system: hemeoxygenase-1 (HO-1); assay: Up-regulation of hemeoxygenase-1 by CoPP during EMS perfusion; design: species or system canine; details: individual kidneys
Protocol: EMS perfusion can be used to deliver a drug to an organ, section of anatomy or tissue in a targeted fashion. In addition, during any procedure the EMS supported ongoing metabolism and function can be monitored providing a mechanism to quantify the impact of the drug and any corresponding cellular response to it. For example, a compound known to cause the up-regulation of the heat-shock protein, hemeoxygenase-1 was administered to an isolated kidney being perfused in accordance with the technology of the present invention. The EMS technology provided adequate support of renal metabolism and function during ex vivo perfusion to increase expression of the hemeoxygenase-1 (HO-1) enzyme within six hours.
as §1, with “Metabolic” for “Test group (n=3) canine kidneys were excised, cannulated, flushed of blood with EMS perfusion solution and placed on EMS perfusion at 32° C.-34° C. for 6 hours with either 5, 25 or 50 uM cobalt protoporphyrin (CoPP) added to the perfusate. Metabolic”

[3] = test system: canine kidneys; assay: CoPP in the perfusate during EMS perfusion: kidney metabolism and function; details: for F.R. (vascular flow rate) / GFR (glomerular filtration rate) / MAP (mean arterial pressure) / Urinary Protein / Urine Flow / Vasc Res (vascular resistance) / 02 Cons (oxygen consumption): n = 2, mean
[4] = test system: isolated canine kidneys; assay: Nitric oxide flux in isolated canine kidneys, 48 hour perfusion; details: for mean NO3 accumulation in the perfusion solution: following 48 hours, ion chromatograph, mean±standard deviation; for net weight gain (edema): isolated canine kidneys, L-NAME and L-NIL 100 μM added to the perfusion solution
Protocol: Kidneys were perfused with the perfusion solution and process described above for 48 hours.
The concentration of nitrate in the solution was determined by analysis on a Dionex DX-500 ion chromatograph using an AS-15 column and KOH eluant that varied in concentration by a programmed gradient. Alternatively, an electrode can be utilized to monitor NO flux in stream. All samples were analyzed in duplicate and were diluted by a factor of 11 and the values expressed as the mean±standard deviation for the kidneys perfused with the solution of the invention or control kidneys perfused with RPMI medium.

[5] = test system: canine kidneys; assay: Regulation of NO flux by titrating L-arginine (nitrite, electrochemical detection)
Protocol: It is desirable to control the flux of NO in tissues, limbs and organs while they are deprived of physiologic blood flow. In certain clinical situations such as the case of septic shock it may be necessary to inhibit the production of NO. Therefore, the ability to regulate the production of NO was evaluated using the solution and process of the present invention. The production of NO was monitored using electrochemical detection using a carbon-modified anode in stream. Oxidation of NO transfers electrons from NO to the anode generating nitrosonium cation that is converted to nitrite as follows: NO→NO+→HONO→NO2^− Canine kidneys were perfused with the solution of the invention without L-arginine. The substrate L-arginine was added to the perfusion path separately to measure the ability to control NO production.
Controls consisted of kidneys perfused with L-Name to inhibit NOS function and kidneys perfused with the solution and process of the present invention but without L-arginine.

[6] = test system: kidneys; assay: In situ kidney perfusion during operative procedure, serum creatinine 24 hours posttreatment; assay type: in vivo; details: six hours in situ acellular perfusion, n = 2, L-NAME 100 uM
Excerpt: The ability to control NOS function during in situ perfusion was observed by placement of cannulas in the aorta above the renal arteries and in the vena cava below the renal veins. In this manner, the renal vasculature could be isolated from vascular blood flow during surgical procedures repairing aortic aneurysm. The kidneys were perfused with the solution of the present invention by opening the perfusion circuit until the blood was flushed from the kidneys. The circuit was then closed and the kidneys perfused acellularly until the end of the surgical procedure and reflow of blood was restored. The cannulas were removed, the incision in the aorta and vena cava closed and blood flow reinstated. During six hours of acellular perfusion the concentration of NO3-was determined every 2 hours and the concentration of L-arginine was adjusted to control the NO flux around the set range using the method described above. Following reperfusion with vascular blood flow, the renal function was evaluated 24 hours posttreatment by determining the serum creatinine (SCR) concentration. Controls consisted of kidneys perfused without L-arginine and kidneys perfused with the addition of L-NAME (100 uM).

[7] = test system: iNOS; details: cited from earlier work
[8] = test system: kidneys; assay: Control of NO3 production around a target during 48 hours perfusion
Protocol: Kidneys were perfused for 48 hours and during the perfusion the kidneys were monitored every 4 hours for the concentration of NO3^− in the circulation. Alternatively, NO concentration can be evaluated by measuring NO directly using an electrode or by measurement of the decrease in concentration of the substrate such as L-arginine. […] The perfusate was exchanged at the rate of 20% v/v every 4 hours with the concentration of L-arginine varying to control the production of NO.

[9] = test system: canine kidneys; assay: Endothelial-dependent vasodilation by acetylcholine in perfused canine kidneys; details: acetylcholine 1.0 mg; kidneys perfused with the solution of the invention
Protocol: Canine kidneys were tested for the ability to produce NO by induction with acetylcholine at a concentration of 1.0, 10.0 or 100 mg. The acetylcholine was administered to the perfusion path of kidneys using the solution and process of this invention and also in control kidneys that were perfused with RPMI medium alone.

[10] = test system: canine kidneys; assay: Nitrate accumulation and acetylcholine vasodilation after 30 minutes warm ischemia and 18 hours perfusion; details: One mg of acetylcholine
[11] = test system: human kidneys; assay: Vasodilation in human kidneys perfused ex vivo, 12 hours
Protocol: Human kidneys were perfused ex vivo in order to evaluate the continued function of NOS in the formation of a continual flux of NO. • Group 1—Kidneys perfused with the solution and process of the invention, n=2 • Group 2—Kidneys perfused with heparinized blood with the pharmacologic agent, nitroprusside added at doses of 1.0, 10.0 and 100.0 mg, n=2
The ability to vasodilate and sustain stable perfusion pressures was determined in both groups during 12 hours of ex vivo perfusion.

Compound: C=CC1=C(C)c2cc3[n-]c(cc4nc(cc5[n-]c(cc1n2)c(C)c5CCC(=O)[O-])C(CCC(=O)[O-])=C4C)c(C)c3C=C.[Co+2].[H+].[H+] [CoPP, cobalt protoporphyrin]
- inhibition of the GFR ([1]; CoPP 50 μM): 91%
- reduction of urine flow ([1]; CoPP increased from 5 to 25 μM): 66%
- reduction of urine flow ([1]; CoPP increased to 50 μM): > 90%
- Hemeoxygenase-1, CoPP induction during EMS perfusion ([2]; 5 μM CoPP): 9.6 IU and 13.2 IU
- Hemeoxygenase-1, CoPP induction during EMS perfusion ([2]; 10 μM CoPP): 16.3 IU and 13.4 IU
- Hemeoxygenase-1, CoPP induction during EMS perfusion ([2]; 25 μM CoPP): 16.1 IU and 16.7 IU
- Hemeoxygenase-1, CoPP induction during EMS perfusion ([2]; 50 μM CoPP): 15.2 IU and 14.7 IU
- F.R. (vascular flow rate) ([3]; 5 uM CoPP): 114 cc/min
- GFR (glomerular filtration rate) ([3]; 5 uM CoPP): 7.02 mL/min
- MAP (mean arterial pressure) ([3]; 5 uM CoPP): 47 mmHg
- Urinary Protein ([3]; 5 uM CoPP): 0.16 gm/dL
- Urine Flow ([3]; 5 uM CoPP): 6 cc/hr
- Vasc Res (vascular resistance) ([3]; 5 uM CoPP): 0.41
- 02 Cons (oxygen consumption) ([3]; 5 uM CoPP, 6 hours EMS perfusion): 0.18 cc/min/gm
- 02 Cons (oxygen consumption) ([3]; 25 uM CoPP): 0.23 cc/min/gm
- F.R. (vascular flow rate) ([3]; 25 uM CoPP): 114 cc/min
- GFR (glomerular filtration rate) ([3]; 25 uM CoPP): 2.05 mL/min
- MAP (mean arterial pressure) ([3]; 25 uM CoPP): 47 mmHg
- Urinary Protein ([3]; 25 uM CoPP): 3.62 gm/dL
- Urine Flow ([3]; 25 uM CoPP): 2 cc/hr
- Vasc Res (vascular resistance) ([3]; 25 uM CoPP): 0.41
- 02 Cons (oxygen consumption) ([3]; 50 uM CoPP): 0.17 cc/min/gm
- F.R. (vascular flow rate) ([3]; 50 uM CoPP): 108 cc/min
- GFR (glomerular filtration rate) ([3]; 50 uM CoPP): 0.6 mL/min
- MAP (mean arterial pressure) ([3]; 50 uM CoPP): 48 mmHg
- Urinary Protein ([3]; 50 uM CoPP): 3.44 gm/dL
- Urine Flow ([3]; 50 uM CoPP): 0.5 cc/hr
- Vasc Res (vascular resistance) ([3]; 50 uM CoPP): 0.44
- reduction of GFR ([3]; CoPP increased from 5 to 25 μM): 71%

Compound: COC(=O)[C@@H](N)CCCNC(=N)N[N+](=O)[O-] [L-NAME, N^6-nitro-L-arginine methyl ester]
- mean NO3 accumulation in the perfusion solution [4]: 0.16 ± 0.1 mg/L
- net weight gain (edema) [4]: 350%
- NO2 ([5]; Control, kidneys perfused with L-Name): 0.17 ± 0.3 mg/dL
- SCr [6]: 4.2 mg/dL

Compound: CC(=N)NCCCC[C@H](N)C(=O)O.Cl [L-NIL]
- mean NO3 accumulation in the perfusion solution [4]: 0.51 ± 0.2 mg/L
- net weight gain (edema) [4]: 206%
- selectivity for iNOS in comparison to the constitutive endothelial NOS isoform [7]: approximately 28 fold

Compound: N=C(N)NCCC[C@H](N)C(=O)O [L-arginine]
- NO2 ([5]; L-arginine 18 mg, n = 3): 1.2 ± 0.1 mg/dL
- NO2 ([5]; L-arginine 35 mg, n = 3): 3.1 ± 0.1 mg/dL
- NO2 ([5]; L-arginine 70 mg, n = 3): 5.8 ± 0.3 mg/dL
- NO2 ([5]; L-arginine 140 mg, n = 3): 11.2 ± 0.5 mg/dL
- NO3 ([8]; perfusion time 4 hours, target 200 ug/L/hr+/−10): 203 µg/L/h
- NO3 ([8]; perfusion time 8 hours): 180 µg/L/h
- NO3 ([8]; perfusion time 12 hours): 205 µg/L/h
- NO3 ([8]; perfusion time 16 hours): 195 µg/L/h
- NO3 ([8]; perfusion time 20 hours): 201 µg/L/h
- NO3 ([8]; perfusion time 24 hours): 210 µg/L/h
- NO3 ([8]; perfusion time 28 hours): 195 µg/L/h
- NO3 ([8]; perfusion time 32 hours): 202 µg/L/h
- NO3 ([8]; perfusion time 36 hours): 210 µg/L/h
- NO3 ([8]; perfusion time 40 hours): 190 µg/L/h
- NO3 ([8]; perfusion time 44 hours): 203 µg/L/h
- NO3 ([8]; perfusion time 48 hours): 209 µg/L/h

Compound: CC(=O)OCC[N+](C)(C)C [acetylcholine]
- mean drop in systolic pressures [9]: 20 mmHg
- time to vasodilation after administration [9]: ≤ 5 min
- time to decrease in mean arterial pressure ([10]; Group 1): ≤ 5 min
- decrease in mean arterial pressure ([10]; Group 1, perfusion with the solution of the invention): 10 mmHg
- decreased perfusion pressure ([11]; acetylcholine 1.0 mg, Group 1): 8 mmHg
- vascular flow rate after vasodilation ([11]; acetylcholine 1.0 mg, Group 1): > 150 cc/min

Compound: C[C@@H]1C[C@H]2[C@@H]3CCC4=CC(=O)C=C[C@]4(C)[C@@]3(F)[C@@H](O)C[C@]2(C)[C@@]1(O)C(=O)CO [dexamethasone]
- mean NO3 accumulation in the perfusion solution [4]: 0.18 ± 0.1 mg/L

Compound: nitroprusside
- decrease in the mean arterial pressures ([11]; nitroprusside 1.0 mg, heparinized blood perfusion): did not lead to an appreciable decrease
- decrease in the mean arterial pressures ([11]; nitroprusside 10.0 mg, heparinized blood perfusion): 6 mmHg
- decrease in the mean arterial pressures ([11]; nitroprusside 100 mg, excessive vascular flow associated with renal damage): profound decrease
